Assay results from patent US20110081428A1, “Use of thioflavin-like compounds to increase life span and/or health span” (priority 2009, published 2011).

Legend:
[1] = tested on: N2 worms; assay: Locomotory ability / spontaneous movement (body bends); format: in vivo, Caenorhabditis elegans; conditions: 50 μM ThT
Protocol: Data are presented as bends/min and represent the average of three independent experiments. *p<0.0001. e) Dose-response Kaplan-Meier survival curves of synchronously ageing hermaphrodite N2 populations exposed to 0 (control) to […], f) HBX and g) HBT at 20° C. (−) Control, (▪) 1 nM, ([…]) 10 μM, (▴) 100 μM, (▾) […]. Graphs are representative of three independent experiments.

[2] = tested on: DA465 [eat-2(ad465)II]; assay: Lifespan assay, eat-2 mutant; format: in vivo, Caenorhabditis elegans; conditions: 50 μM ThT
Protocol: (§1) Lifespan assays were performed as described previously. (McColl, G. et al. Pharmacogenetic analysis of lithium-induced delayed aging in Caenorhabditis elegans. J Biol Chem 283, 350-357 (2008). Briefly, the nematode growth media (NGM) plates were prepared under sterile conditions. 100 μL of concentrated stocks of each of the compounds used in this study were added onto a previously prepared NGM small plate (3 mL volume) immediately spread over the surface of the plate. The final concentrations quoted in the text assume an even distribution of compound throughout the 3 ml plate. The plates were then placed in a laminar flow hood at room temperature for 30 min and then 60 μL of a concentrated suspension of E. coli OP50 was spotted to form a circular lawn on the center of each plate. Thirty late L4 larvae growing at 20° C. were transferred to fresh NGM plates with FUdR (75 μM) in presence or absence of the specified compounds and incubated at 20° C. The first day of adulthood is Day 3 in survival curves. There was between-experiment variation in the magnitude of the lifespan extension observed with ThT which appeared to correlate with different suppliers and batches. ThT concentration should be optimized depending on batch and purity and stability of the compound. […]
(§2) Animals were scored as alive, dead or lost every other day. […]

[3] = tested on: PS3551 [hsf-1(sy441)I]; assay: Lifespan assay, hsf-1 mutant; format: in vivo, Caenorhabditis elegans; conditions: 50 μM ThT, 100 μM curcumin
Protocol: Lifespan assays were performed as described previously. (McColl, G. et al. Pharmacogenetic analysis of lithium-induced delayed aging in Caenorhabditis elegans. J Biol Chem 283, 350-357 (2008). Briefly, the nematode growth media (NGM) plates were prepared under sterile conditions. 100 μL of concentrated stocks of each of the compounds used in this study were added onto a previously prepared NGM small plate (3 mL volume) immediately spread over the surface of the plate. The final concentrations quoted in the text assume an even distribution of compound throughout the 3 ml plate. The plates were then placed in a laminar flow hood at room temperature for 30 min and then 60 μL of a concentrated suspension of E. coli OP50 was spotted to form a circular lawn on the center of each plate. Thirty late L4 larvae growing at 20° C. were transferred to fresh NGM plates with FUdR (75 μM) in presence or absence of the specified compounds and incubated at 20° C. The first day of adulthood is Day 3 in survival curves. […] ThT concentration should be optimized depending on batch and purity and stability of the compound.
Animals were scored as alive, dead or lost every other day. […] Animals that died from causes other than ageing, such as sticking to the plate walls, internal hatching of eggs (“bagging”) or gonadal extrusion were censored as were lost worms. […]

[4] = tested on: TJ1052 [age-1(hx546)II]; assay: Lifespan assay, age-1 mutant; format: in vivo, Caenorhabditis elegans; conditions: 50 μM ThT, 25° C.
Protocol: as §1, §2

[5] = tested on: wildtype (N2) worms; assay: Pharyngeal pumping rate; format: in vivo, Caenorhabditis elegans; conditions: 50 μM ThT
Protocol: FIG. 11A-B. ThT produces small changes in pharyngeal pumping in N2 worms and increases lifespan on a dietary restriction model. a) Pharyngeal pumping rates of wildtype animals raised on 50 μM ThT measured at 3 (left panel) and 6 days of treatment (right panel). Pumping rates of 15 individuals were scored and the averages of three independent experiments are shown (*p<0.01). b) 1 and 10 μM ThT increase lifespan of N2 worms raised on 1×10^9 cfu/ml at 20° C. as compared to untreated worms (left panel). Percent gain in median survival of N2 populations cultured on 0-50 μM ThT (right panel). Bars are representative of 2 to 4 independent experiments per duplicate.

[6] = target: Aβ3-42 aggregates in CL4176 (Homo sapiens, UniProt P05067); assay: Aβ aggregation in vivo by immunohistochemistry; set-up: species or system Caenorhabditis elegans; conditions: CL4176, 50 μM ThT
Protocol: For immunofluorescence, N2, unc-He250 52(e669su250), CB1157 unc-54(e1157) or CL4176 dvIs27 [myo-3::Aβ(3 to 42)-let 3′UTR(pAF29); pRF4 (rol-6(su1006))] worms were treated for 24-36 h with or without 50 μM ThT at 25° C. After this period the worms were collected, rinsed, and fixed in 4% paraformaldehyde overnight. After fixation, worms were rinsed twice with 1 ml of 10 mM Tris-HCl pH 7.5 and then permeabilized by 24 h exposure to β-mercaptoethanol at 37° C. followed by collagenase treatment (2 mg/ml for 1-1.5 at 37° C.) to allow for digestion of the cuticle. Paramyosin and perlecans were detected with primary monoclonal antibodies 5-23 and MH3 (developed by Henry Epstein and Robert H. Waterston and obtained from the Developmental Studies Hybridoma Bank developed under the auspices of the NICHD and maintained by The University of Iowa, Department of Biology, Iowa City, Iowa 52242) and AlexaFluor 633 goat anti-mouse (Molecular Probes) as secondary antibody. Soluble oligomers and Aβ peptide were detected with anti polyclonal All (Invitrogen) and 6E10 monoclonal (Covance) primary antibodies, respectively, with AlexaFluor 568 goat anti-rabbit and AlexaFluor 488 goat anti-mouse (Molecular Probes) as secondary antibodies. Images were processed and quantified by using Image Analyst MK II (Novato, Calif.).

[7] = tested on: chn-1 RNA; assay: Real time quantitative PCR, chn-1; format: in vivo, Caenorhabditis elegans; conditions: 50 μM ThT, 3 and 6 days of treatment
Protocol: Twelve single adults from control or 50 μM ThT populations were picked after 3, 6 and 12 days of treatment into 5 μl of distilled water and flash frozen until extraction. Individual worms were extracted using the RNeasy Micro Kit, TissueLyser and QIAcube (Qiagen). Using the manufacturer's standard Animal Tissue protocol, each sample was homogenized in buffer RLT/Bme (Qiagen) on the TissueLyser (6 min total at 20 Hz). Samples, reagents and columns were then loaded into the QIAcube robot, and processed using the “RNeasy Micro—Animal tissues and cells—DNase digest” program. Each sample was then eluted in 14 μl of Nuclease-free water. cDNA templates for the Real Time PCR reactions were made using a combination of Message Sensor RT kit (Ambion's) and TaqMan PreAmp Master Mix (Applied Biosystems). The entire worm sample was added to the RT reaction and reversed transcribed at 50° C. for 20 min, using Message Sensor's “Two Step RT-PCR Protocol” (sample RT's were randomized). Then 2.5 μl of the cDNA sample was pre-amplified with a “4×Multiplex Primer Mix” for 14 cycles using TaqMan PreAmp master mix and protocol (ABI). Two modifications were made to ABI's protocol: 1. the reaction volume was reduced to 10 μl and 2. after pre-amplification, each cDNA sample was diluted 1:5 with 1XTE Buffer (Promega). cDNA samples were stored at −20° C. until needed. […]

Aβ3-42 aggregates in CL4176, sequence (P05067 674-713): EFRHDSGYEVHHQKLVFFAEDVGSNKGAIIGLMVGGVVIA

Q: Which results are given for `Cc1ccc2c(c1)sc(-c1ccc(N(C)C)cc1)[n+]2C.[Cl-]` [ThT, 4-(3,6-dimethyl-1,3-benzothiazol-3-ium-2-yl)-N,N-dimethylaniline chloride]?
A: age-related decline in spontaneous movement [1]: retarded age-related decline in spontaneous movement; lifespan of eat-2 mutant (genetic DR model) [2]: increased the lifespan; lifespan of hsf-1(sy441) mutant [3]: does not increase lifespan; lifespan of age-1(hx546) mutant [4]: extended the lifespan; decrease in pharyngeal pumping rate ([5]; after 3 days of treatment): ~15%; pharyngeal pumping rate ([5]; after 6 days of treatment): No difference was detected; Aβ aggregate formation and muscle integrity [6]: reduced aggregate formation and preserved the muscle integrity; chn-1 RNA levels [7]: up-regulated
